The assay addresses T1, human Bradykinin B1 receptor (Homo sapiens, UniProt P46663).
T1 construct: host or cells: CHO-K1
T1 sequence (P46663 1-353): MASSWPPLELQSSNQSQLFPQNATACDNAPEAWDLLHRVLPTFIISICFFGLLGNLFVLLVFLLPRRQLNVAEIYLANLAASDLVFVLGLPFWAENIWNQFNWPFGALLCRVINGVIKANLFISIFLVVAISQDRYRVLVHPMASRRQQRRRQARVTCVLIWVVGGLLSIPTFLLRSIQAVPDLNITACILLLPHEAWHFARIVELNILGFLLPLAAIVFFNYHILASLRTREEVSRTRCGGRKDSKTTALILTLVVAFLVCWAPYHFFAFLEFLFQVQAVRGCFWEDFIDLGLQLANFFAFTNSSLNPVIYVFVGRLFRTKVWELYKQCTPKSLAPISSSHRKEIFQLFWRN
Briefly: Calcium flux Assay (FLIPR) with cells expressing human Bradykinin B1 receptor (hB1). It is filed as cell-based. Conditions: absence of 0.1% BSA in assay buffer; CHO-K1 cell line expressing human B1 receptor; agonist Lys-(Des-Arg)-Bradykinin; read-out: hB1 free IC50. How it is done: The potency to inhibit the Bradykinin B1 receptor was determined for the compound examples of this invention in a cell-based fluorescent calcium-mobilisation assay. The assay measures the ability of compound examples to inhibit Bradykinin B1 receptor agonist-induced increase of intracellular free Ca^2+ in the cell line expressing Bradykinin B1 receptor. Specifically, calcium indicator-loaded cells are pre-incubated in the absence or presence of different concentrations of compound examples followed by the stimulation with a selective Bradykinin B1 receptor agonist peptide. The change of the intracellular Ca^2+ concentration is monitored with a fluorescent plate reader FLIPR^TETRA®
Calcium flux Assays (FLIPR) with cells expressing human Bradykinin B1 receptor (hB1) Calcium flux Assay (FLIPR) with recombinant cells for Bradykinin B1 receptor antagonist, either in the presence (hB1 IC50) or absence (hB1 free IC50) of 0.1% Bovine Serum Albumin (BSA) in assay buffer.
CHO—K1 cell line expressing human B1 receptor was purchased from Euroscreen (Gosselies, Belgium, with reference name hB1-D1). The cells were grown in Nutrient Mixture Ham's F12 (Sigma) containing 10% Foetal bovine serum (Sigma) and 400 μg/mL G418 (Sigma), 5 μg/mL puromycin (Sigma).
For the calcium flux assay, 80% confluent cells were detached from the culture vessels with Versene (Gibco), and seeded into 384-well plates (Cell binding Surface; Corning, N.Y.; #3683) at a density of 15,000 cells per well. Cells were seeded in a volume of 50 μL in medium without antibiotics and incubated overnight in a humidified atmosphere with 5% CO2 at 37° C. […] The calcium indicator loaded cells were incubated at 37° C. for 2 hrs. Extracellular dye was then removed and each well was filled with 45 μL of assay buffer. Cell plates were kept in dark until used. Example compounds were assayed at 8 concentrations in triplicate. Serial 10-fold dilutions in 100% DMSO were made at a 100-times higher concentration than the final concentration, and then diluted 1:10 in assay buffer. 5 μL of each diluted compound was added to the well of cell plates (yielding final concentration with 1% DMSO), and incubated for 30 min at 28° C. before the addition of B1 receptor agonist on the FLIPR instrument.
Agonist plates contained the agonist Lys-(Des-Arg)-Bradykinin (Bachem, Brackley) at 3.5×EC90 in assay buffer with 1% DMSO. The addition of agonist 20 μl per well to the assay plate was carried out on the FLIPR instrument while continuously monitoring Ca^2+-dependent fluorescence at 538 nm. A peptide antagonist Lys-(Des-Arg-Leu)-Bradykinin (Bachem, Brackley) at 20 μM was used to determine the full inhibition as control.
Peak fluorescence was used to determine the response to agonist obtained at each concentration of example compound by the following equation:
% Response=100*(RFU(example compound)−RFU(control))/(RFU(DMSO)−RFU(control)) • RFU means relative fluorescence units. • Control means full inhibition by the peptide antagonist Lys-(Des-Arg-Leu)-Bradykinin at 20
The response values were plotted against the logarithm of the example compound concentrations. The example compounds were tested in triplicates per plate and mean values were plotted in Excel XLfit to determine IC50 values, percentage of maximal inhibition and the Hill slopes.
IC50 values of example compounds in Calcium flux Assay (FLIPR) as shown in table 1 were determined according to the protocol described above in the absence of 0.1% BSA in assay buffer.
In general terms: A change in cytosolic calcium serves as a functional read-out for many receptors and channels.
By IC50 is commonly meant the midpoint of a concentration-inhibition curve. As for `O=C(OC1CCCCC1)c1ccc(NC(=O)C2(c3ccc(C(F)(F)F)cc3F)CC2)cc1-c1nnn[nH]1` [Example 16, Cyclohexyl 4-[({1-[2-fluoro-4-(trifluoromethyl)phenyl]cyclopropyl}carbonyl)amino]-2-(1H-tetrazol-5-yl)benzoate], the IC50 stood at 5 nM.

`O=C(OC1CCCC1)c1ccc(NC(=O)C2(c3ccc(C(F)(F)F)cc3F)CC2)cc1-c1nnn[nH]1` [Example 6, Cyclopentyl 4-[({1-[2-fluoro-4-(trifluoromethyl)phenyl]cyclopropyl}carbonyl)amino]-2-(1H-tetrazol-5-yl)benzoate]: the IC50 turned out to be 9 nM.

Turning to `O=C(NCC1CCOCC1)c1ccc(NC(=O)C2(c3ccc(C(F)(F)F)cc3F)CC2)cc1-c1nnn[nH]1` [Example 48, 4-[({1-[2-Fluoro-4-(trifluoromethyl)phenyl]cyclopropyl}carbonyl)amino]-N-(tetrahydro-2H-pyran-4-ylmethyl)-2-(1H-tetrazol-5-yl)benzamide], the IC50 is 60 nM.

Consider `CCC(C)N(C)C(=O)c1ccc(NC(=O)C2(c3ccc(C(F)(F)F)cc3F)CC2)cc1-c1nnn[nH]1` (single isomer, unassigned) [Example 58, N-sec-butyl-4-[({1-[2-fluoro-4-(trifluoromethyl)phenyl]cyclopropyl}carbonyl)-amino]-N-methyl-2-(1H-tetrazol-5-yl)benzamide], for which the IC50 was determined as 1850 nM.

As for `CC1(OC(=O)c2ccc(NC(=O)C3(c4ccc(C(F)(F)F)cc4F)CC3)cc2-c2nnn[nH]2)CCCC1` [Example 14, 1-Methylcyclopentyl 4-[({1-[2-fluoro-4-(trifluoromethyl)phenyl]cyclopropyl}-carbonyl)amino]-2-(1H-tetrazol-5-yl)benzoate], the IC50 worked out at 999 nM.

For the compound `O=C(OC1CCCC1)c1ccc(NC(=O)C2(c3cccc(Cl)c3)CC2)cc1-c1nnn[nH]1` [Example 2, Cyclopentyl 4-({[1-(3-chlorophenyl)cyclopropyl]carbonyl}amino)-2-(1H-tetrazol-5-yl)benzoate], the IC50 came out at 21 nM.

On to `CN(CC1CCOCC1)C(=O)c1ccc(NC(=O)C2(c3ccc(C(F)(F)F)cc3F)CC2)cc1-c1nnn[nH]1` [Example 49, 4-[({1-[2-Fluoro-4-(trifluoromethyl)phenyl]cyclopropyl}carbonyl)amino]-N-methyl-N-(tetrahydro-2H-pyran-4-ylmethyl)-2-(1H-tetrazol-5-yl)benzamide], for which the IC50 was 1800 nM.

For `O=C(OC1CCOC1)c1ccc(NC(=O)C2(c3ccc(C(F)(F)F)cc3F)CC2)cc1-c1nnn[nH]1` (racemic) [Example 18, Tetrahydrofuran-3-yl 4-[({1-[2-fluoro-4-(trifluoromethyl)phenyl]cyclopropyl}carbonyl)amino]-2-(1H-tetrazol-5-yl)benzoate], the IC50 was 7 nM.

As for `O=C(NCC1CCCCC1)c1ccc(NC(=O)C2(c3ccc(C(F)(F)F)cc3F)CC2)cc1-c1nnn[nH]1` [Example 44, N-(cyclohexylmethyl)-4-[({1-[2-fluoro-4-(trifluoromethyl)phenyl]cyclopropyl}carbonyl)amino]-2-(1H-tetrazol-5-yl)benzamide], the half-inhibitory concentration (IC50) was determined as 13 nM.

For `Cc1ccc(C2(C(=O)Nc3ccc(C(=O)OC4CCCC4)c(-c4nnn[nH]4)c3)CC2)c(F)c1` [Example 5, Cyclopentyl 4-({[1-(2-fluoro-4-methylphenyl)cyclopropyl]carbonyl}amino)-2-(1H-tetrazol-5-yl)benzoate], the IC50 is 25 nM.

Regarding `CCOC(=O)c1c(F)cc(NC(=O)C2(c3ccc(C(F)(F)F)cc3F)CC2)cc1-c1nnn[nH]1` [Example 59, Ethyl 2-fluoro-4-[({1-[2-fluoro-4-(trifluoromethyl)phenyl]cyclopropyl}-carbonyl)amino]-6-(1H-tetrazol-5-yl)benzoate], the IC50 is 5 nM.

As for `CC(C)(C)COC(=O)c1ccc(NC(=O)C2(c3ccc(C(F)(F)F)cc3F)CC2)cc1-c1nnn[nH]1` [Example 29, 2,2-Dimethylpropyl 4-[({1-[2-fluoro-4-(trifluoromethyl)phenyl]cyclopropyl}carbonyl)amino]-2-(1H-tetrazol-5-yl)benzoate], the IC50 is 6 nM.

The values are drawn from patent US20190177284A1, “TETRAZOLYL-CONTAINING CYCLOPROPANECARBOXAMIDES” (Bayer Pharma Aktiengesellschaft, priority 2017, published 2019).
